Source: patent US20150105252A1, “SUBSTITUTED PYRAZOLES AS HERBICIDES” (E I DU PONT DE NEMOURS AND COMPANY, priority 2013, published 2015)

Legend:
morningglory [1] = assay: Test A postemergence; type: in vivo, Ipomoea spp.
In short: (§1)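 Ratings express plant response from 0 (no effect) to 100 (complete control), judged visually against untreated controls after approximately 10 days in the greenhouse. Preemergence applications were made as directed soil sprays onto seeded loam–sand mix, and postemergence applications onto 2–10 cm plants at one- to two-leaf stage.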

crabgrass, large [2] = assay: Test A preemergence; type: in vivo, Digitaria sanguinalis; details: preemergence
In short: as §1

crabgrass, large [3] = assay: Test C preemergence; type: in vivo, Digitaria sanguinalis; details: for Crabgrass, Large plant response rating: preemergence; for Plant response rating, Crabgrass, Large: scale 0 to 100
In short: (§2)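 Seeds were sown in a loam soil–sand blend and sprayed preemergence with compounds formulated in a non-phytotoxic solvent mixture containing surfactant. Postemergence plants, grown in peat/vermiculite medium to 2–18 cm (1- to 4-leaf stage), received the same formulation. After 13 to 15 days in a greenhouse, injury was rated visually against controls (0 = no effect, 100 = complete control).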

ducksalad = assay: Test B flood; type: in vivo, Heteranthera limosa; details: 250 g ai/ha, visual rating on 0 to 100 scale (0 no effect, 100 complete control), 13 to 15 days
In short: (§3)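 Flooded-pot test: compound dosed into 3 cm of standing water above soil when plants had two leaves. Visual control ratings (0–100) versus untreated plants after 13–15 d.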

nutsedge, yellow [4] = assay: Test C preemergence; type: in vivo, Cyperus esculentus; details: for Nutsedge, Yellow plant response rating: preemergence; for Plant response rating, Nutsedge, Yellow: scale 0 to 100
In short: as §2

barnyardgrass [5] = assay: Test A postemergence; type: in vivo, Echinochloa crus-galli
In short: as §1

chickweed = assay: Test C postemergence; type: in vivo, Stellaria media
Text: (§4) Seeds of plant species selected from blackgrass (Alopecurus myosuroides), ryegrass, Italian (Italian ryegrass, Lolium multiflorum), wheat (winter wheat, Triticum aestivum), galium (catchweed bedstraw, Galium aparine), corn (Zea mays), crabgrass, large (large crabgrass, Digitaria sanguinalis), foxtail, giant (giant foxtail, Setaria faberii), johnsongrass (Sorghum halepense), lambsquarters (Chenopodium album), morningglory (Ipomoea coccinea), nutsedge, yellow (yellow nutsedge, Cyperus esculentus), pigweed (redroot pigweed, Amaranthus retroflexus), ragweed (common ragweed, Ambrosia elation), soybean (Glycine max), barnyardgrass (Echinochloa crus-galli), oilseed rape (Brassica napus), waterhemp (common waterhemp, Amaranthus rudis), oat, wild (wild oat, Avena fatua), kochia (Kochia scoparia), Surinam grass (Brachiaria decumbens), foxtail, green (green foxtail, Setaria viridis), goosegrass (Eleusine indica), bromegrass, downy (downy bromegrass, Bromus tectorum), nightshade (eastern black nightshade, Solanum ptycanthum), cocklebur (common cocklebur, Xanthium strumarium), cupgrass, woolly (woolly cupgrass, Eriochloa villosa), bermudagrass (Cynodon dactylon), sunflower, (common oilseed sunflower, Helianthus annuus), Russian thistle (Salsola kali), and velvetleaf (Abutilon theophrasti) were planted into a blend of loam soil and sand and treated preemergence with test chemicals formulated in a non-phytotoxic solvent mixture which included a surfactant.
(§5) At the same time, plants selected from these crop and weed species and also chickweed (common chickweed, Stellaria media), canarygrass (littleseed canarygrass, Phalaris minor), and deadnettle (henbit deadnettle, Lamium amplexicaule), were planted in pots containing Redi-Earth® planting medium (Scotts Company, 14111 Scottslawn Road, Marysville, Ohio 43041) comprising spaghnum peat moss, vermiculite, wetting agent and starter nutrients and treated with postemergence applications of test chemicals formulated in the same manner. Plants ranged in height from 2 to 18 cm (1- to 4-leaf stage) for postemergence treatments. Treated plants and controls were maintained in a greenhouse for 13 to 15 days, after which time all species were compared to controls and visually evaluated. Plant response ratings, summarized in Table C, are based on a scale of 0 to 100 where 0 is no effect and 100 is complete control. A dash (-) response means no test result.

nutsedge, yellow [6] = assay: Test C postemergence; type: in vivo, Cyperus esculentus
In short: as §2

barnyardgrass [7] = assay: Test C preemergence; type: in vivo, Echinochloa crus-galli; details: for Barnyardgrass plant response rating: preemergence; for Plant response rating, Barnyardgrass: scale 0 to 100
Text: as §4, §5

rice = assay: Test B flood; type: in vivo, Oryza sativa; details: 250 g ai/ha, visual rating on 0 to 100 scale (0 no effect, 100 complete control), 13 to 15 days
In short: as §3

velvetleaf = assay: Test C preemergence; type: in vivo, Abutilon theophrasti; details: for Velvetleaf plant response rating: preemergence; for Plant response rating, Velvetleaf: scale 0 to 100
Text: as §4, §5

morningglory [8] = assay: Test C preemergence; type: in vivo, Ipomoea coccinea; details: for Plant response rating, Morningglory: Preemergence, scale 0 to 100
In short: as §2

oilseed rape = assay: Test C preemergence; type: in vivo, Brassica napus; details: for Plant response rating, Oilseed Rape: Preemergence, scale 0 to 100
Text: as §4, §5

[9] = Postemergence, 500 g ai/ha, visual rating after approx. 10 days, 0 to 100 scale (0 no effect, 100 complete control)
[10] = postemergence, 125 g ai/ha, about 10 days, visual rating on 0 to 100 scale (0 no effect, 100 complete control)
[11] = 125 g ai/ha, visual injury, 0 to 100 scale, approx. 10 days
[12] = 500 g ai/ha, visual injury after approx. 10 days, 0 to 100 scale (0 no effect, 100 complete control)
[13] = 31 g ai/ha, visual rating, scale 0 to 100 (0 no effect, 100 complete control), 13 to 15 days
[14] = 62 g ai/ha, scale 0 to 100 (0 no effect, 100 complete control), 13 to 15 days
[15] = 125 g ai/ha, scale 0 to 100, 0 is no effect, 100 is complete control
[16] = Postemergence, 31 g ai/ha, visually evaluated after 13 to 15 days
[17] = postemergence, 62 g ai/ha, scale 0 to 100
[18] = postemergence, 250 g ai/ha, scale 0 to 100 (0 no effect, 100 complete control)
[19] = postemergence, 125 g ai/ha, scale 0 to 100, 0 no effect, 100 complete control
[20] = 31 g ai/ha, scale 0 to 100 (0 no effect, 100 complete control), 13 to 15 days
[21] = Postemergence, 500 g ai/ha, 0 to 100 scale (0 no effect, 100 complete control)
[22] = preemergence, 31 g ai/ha, visual rating, scale 0 to 100 (0 no effect, 100 complete control), 13 to 15 days

## CCc1cc(-c2ccc(C(F)(F)F)cc2)nn1Cc1ccnc(C(F)(F)F)c1 [Compound 110]
Morningglory [1]; [9]
  Morningglory plant response rating: 100
Morningglory [1]; [10]
  Morningglory plant response rating: 100
crabgrass, large [2]; [11]
  Crabgrass, Large plant response rating: 100
crabgrass, large [2]; [12]
  Crabgrass, Large plant response rating: 100
crabgrass, large [3]; Preemergence, 250 g ai/ha
  Plant response rating (scale of 0 to 100), Crabgrass, Large: 100
crabgrass, large [3]; [13]
  Crabgrass, Large plant response rating: 95
crabgrass, large [3]; [14]
  Crabgrass, Large plant response rating: 98
crabgrass, large [3]; [15]
  Crabgrass, Large plant response rating: 100
ducksalad
  Plant response rating, Ducksalad: 80
nutsedge, yellow [4]; Preemergence, 250 g ai/ha
  Plant response rating (scale of 0 to 100), Nutsedge, Yellow: 5
nutsedge, yellow [4]; [14]
  Nutsedge, Yellow plant response rating: 5
nutsedge, yellow [4]; [15]
  Nutsedge, Yellow plant response rating: 5
Barnyardgrass [5]; [9]
  Barnyardgrass plant response rating: 90
Barnyardgrass [5]; [10]
  Barnyardgrass plant response rating: 80
chickweed; [16]
  Plant response rating (scale of 0 to 100 where 0 is no effect and 100 is complete control), Chickweed: 70
chickweed; [17]
  Chickweed plant response rating: 70
chickweed; [18]
  Plant response rating, Chickweed: 95
chickweed; [19]
  Plant response rating, Chickweed: 90
nutsedge, yellow [6]; [16]
  Plant response rating (scale of 0 to 100 where 0 is no effect and 100 is complete control), Nutsedge, Yellow: 5
nutsedge, yellow [6]; [17]
  Nutsedge, Yellow plant response rating: 10
nutsedge, yellow [6]; [18]
  Plant response rating, Nutsedge, Yellow: 10
nutsedge, yellow [6]; [19]
  Plant response rating, Nutsedge, Yellow: 10
Barnyardgrass [7]; Preemergence, 250 g ai/ha
  Plant response rating (scale of 0 to 100), Barnyardgrass: 90
Barnyardgrass [7]; [20]
  Barnyardgrass plant response rating: 25
Barnyardgrass [7]; [14]
  Barnyardgrass plant response rating: 30
Barnyardgrass [7]; [15]
  Barnyardgrass plant response rating: 65
rice
  Plant response rating, Rice: 35
velvetleaf; Preemergence, 250 g ai/ha
  Plant response rating (scale of 0 to 100), Velvetleaf: 75
velvetleaf; [13]
  Velvetleaf plant response rating: 50
velvetleaf; [14]
  Velvetleaf plant response rating: 50
velvetleaf; [15]
  Velvetleaf plant response rating: 70

## CCOc1cc(C(=O)NCC(F)(F)F)nn1Cc1cc(C(F)(F)F)nn1C [Compound 140]
Morningglory [1]; [21]
  Morningglory plant response rating: 90
Morningglory [1]; [10]
  Morningglory plant response rating: 90
crabgrass, large [2]; [11]
  Crabgrass, Large plant response rating: 100
crabgrass, large [2]; [12]
  Crabgrass, Large plant response rating: 100
crabgrass, large [3]; Preemergence, 4 g ai/ha
  Plant response rating, Crabgrass, Large: 45
crabgrass, large [3]; Preemergence, 8 g ai/ha
  Plant response rating, Crabgrass, Large: 55
crabgrass, large [3]; Preemergence, 16 g ai/ha
  Plant response rating, Crabgrass, Large: 75
crabgrass, large [3]; [13]
  Crabgrass, Large plant response rating: 98
Morningglory [8]; 4 g ai/ha
  Plant response rating, Morningglory: 5
Morningglory [8]; 8 g ai/ha
  Plant response rating, Morningglory: 5
Morningglory [8]; 16 g ai/ha
  Plant response rating, Morningglory: 95
Morningglory [8]; [22]
  Morningglory plant response rating: 90
ducksalad
  Plant response rating, Ducksalad: 95
Oilseed rape; 4 g ai/ha
  Plant response rating, Oilseed Rape: 5
Oilseed rape; 8 g ai/ha
  Plant response rating, Oilseed Rape: 80
Oilseed rape; 16 g ai/ha
  Plant response rating, Oilseed Rape: 95
Oilseed rape; [22]
  Oilseed Rape plant response rating: 95
nutsedge, yellow [4]; Preemergence, 4 g ai/ha
  Plant response rating, Nutsedge, Yellow: 0
nutsedge, yellow [4]; Preemergence, 8 g ai/ha
  Plant response rating, Nutsedge, Yellow: 15
nutsedge, yellow [4]; Preemergence, 16 g ai/ha
  Plant response rating, Nutsedge, Yellow: 0
nutsedge, yellow [4]; [13]
  Nutsedge, Yellow plant response rating: 15
Barnyardgrass [5]; [21]
  Barnyardgrass plant response rating: 90
Barnyardgrass [5]; [10]
  Barnyardgrass plant response rating: 70
Barnyardgrass [7]; Preemergence, 4 g ai/ha
  Plant response rating, Barnyardgrass: 0
Barnyardgrass [7]; Preemergence, 8 g ai/ha
  Plant response rating, Barnyardgrass: 5
Barnyardgrass [7]; Preemergence, 16 g ai/ha
  Plant response rating, Barnyardgrass: 30
Barnyardgrass [7]; [20]
  Barnyardgrass plant response rating: 80
rice
  Plant response rating, Rice: 40
velvetleaf; Preemergence, 4 g ai/ha
  Plant response rating, Velvetleaf: 0
velvetleaf; Preemergence, 8 g ai/ha
  Plant response rating, Velvetleaf: 5
velvetleaf; Preemergence, 16 g ai/ha
  Plant response rating, Velvetleaf: 10
velvetleaf; [13]
  Velvetleaf plant response rating: 45
